Results from the supplement of paper PMC13380429.

Assays:
Details in all cases: 72 h
[1] = test system: Caco-2; assay: cell viability relative to DMSO; higher = less toxic
[2] = test system: Calu-3; assay: as above
[3] = test system: HepG2; assay: as above
[4] = test system: U2OS; assay: as above
[5] = test system: Vero E6; assay: as above
[6] = test system: Caco-2; assay: relative viability EC50 (midpoint between 100% and the lowest measured viability); higher = less toxic
[7] = test system: Calu-3; assay: as above
[8] = test system: HepG2; assay: as above
[9] = test system: U2OS; assay: as above
[10] = test system: Vero E6; assay: as above
[11] = test system: Caco-2; assay: drug sensitivity score (DSS) for viability; higher = more toxic; extreme values may be limits of the assay
[12] = test system: Calu-3; assay: as above
[13] = test system: HepG2; assay: as above
[14] = test system: U2OS; assay: as above
[15] = test system: Vero E6; assay: as above

SMILES | cell viability ([1]; 1 nM) [%] | cell viability ([1]; 10 nM) [%] | cell viability ([1]; 100 nM) [%] | cell viability ([1]; 1000 nM) [%] | cell viability ([1]; 10000 nM) [%] | cell viability ([2]; 1 nM) [%] | cell viability ([2]; 10 nM) [%] | cell viability ([2]; 100 nM) [%] | cell viability ([2]; 1000 nM) [%] | cell viability ([2]; 10000 nM) [%] | cell viability ([3]; 1 nM) [%] | cell viability ([3]; 10 nM) [%] | cell viability ([3]; 100 nM) [%] | cell viability ([3]; 1000 nM) [%] | cell viability ([3]; 10000 nM) [%] | cell viability ([4]; 1 nM) [%] | cell viability ([4]; 10 nM) [%] | cell viability ([4]; 100 nM) [%] | cell viability ([4]; 1000 nM) [%] | cell viability ([4]; 10000 nM) [%] | cell viability ([5]; 1 nM) [%] | cell viability ([5]; 10 nM) [%] | cell viability ([5]; 100 nM) [%] | cell viability ([5]; 1000 nM) [%] | cell viability ([5]; 10000 nM) [%] | relative viability EC50 [6] [µM] | relative viability EC50 [7] [µM] | relative viability EC50 [8] [µM] | relative viability EC50 [9] [µM] | relative viability EC50 [10] [µM] | drug sensitivity score [11] | drug sensitivity score [12] | drug sensitivity score [13] | drug sensitivity score [14] | drug sensitivity score [15]
C/C=C1/[C@H](O[C@@H]2O[C@H](CO)[C@@H](O)[C@H](O)[C@H]2O)OC=C(C(=O)OC)[C@H]1CC(=O)OCCc1ccc(O)c(O)c1 [oleuropein] | 101 | 108 | 99.9 | 101 | 88.8 | 90.8 | 98.8 | 101 | 102 | 93.6 | 101 | 97.1 | 98.1 | 108 | 84.4 | 105 | 98.7 | 101 | 95.1 | 97.8 | 98.8 | 103 | 98.7 | 105 | 95.2 | > 10 | > 10 | > 10 | > 10 | > 10 | 0 | 0 | 0.1 | 0 | 0
C[C@]12CC[C@@H]3c4ccc(O)cc4CC[C@H]3[C@@H]1C[C@@H](O)[C@@H]2O [estriol] | 97.5 | 96.3 | 101 | 105 | 105 | 94.5 | 96.5 | 95.6 | 93.7 | 103 | 106 | 103 | 96.8 | 90.4 | 96.1 | 99.3 | 97.4 | 101 | 101 | 102 | 96 | 99.1 | 96.5 | 89.2 | 105 | > 10 | > 10 | > 10 | > 10 | > 10 | 0 | 0 | 0 | 0 | 0
CS(=O)(=O)c1ccc(-c2cc(Br)sc2-c2ccc(F)cc2)cc1 [DUP-697] | 110 | 95.1 | 102 | 104 | 88.2 | 97.2 | 98 | 103 | 112 | 114 | 103 | 107 | 105 | 104 | 79.5 | 103 | 98.1 | 103 | 105 | 104 | 95.6 | 101 | 93.4 | 96.5 | 97.8 | > 10 | > 10 | > 10 | > 10 | > 10 | 0 | 0 | 0.4 | 0 | 0
